ChEMBL document CHEMBL4007448, “The derivatives of Pulsatilla saponin A, a bioactive compound from Pulsatilla chinensis: Their synthesis, cytotoxicity, haemolytic toxicity and mechanism of action” (Eur J Med Chem, 2017)
The source made the active and inactive calls. The calls are words filed in the database; no cut-off is given here.

Legend:
A549 = test: Cytotoxicity against human A549 cells assessed as reduction in cell viability after 48 hrs by MTT assay; format: functional, cell-based; conditions: A549, 48 h
SMMC-7721 = test: Cytotoxicity against human SMMC7721 cells assessed as reduction in cell viability after 48 hrs by MTT assay; format: functional, cell-based; conditions: SMMC-7721, 48 h
BGC-823 = test: Cytotoxicity against human BGC823 cells assessed as reduction in cell viability after 48 hrs by MTT assay; format: functional, cell-based; conditions: BGC-823, 48 h
[1] = Hemolytic activity against New Zealand rabbit erythrocytes after 60 mins; format: ADME, cell-based, Oryctolagus cuniculus, Erythrocyte; conditions: read-out: HD50
MCF7 = test: Cytotoxicity against human MCF7 cells assessed as reduction in cell viability after 48 hrs by MTT assay; format: functional, cell-based; conditions: MCF7, 48 h
KB = test: Cytotoxicity against human KB cells assessed as reduction in cell viability after 48 hrs by MTT assay; format: functional, cell-based
[2] = Cytotoxicity against human KBVIN cells assessed as reduction in cell viability after 48 hrs by MTT assay; format: functional, cell-based
MDA-MB-231 [3] = test: Cytotoxicity against human MDA-MB-231 cells assessed as reduction in cell viability after 48 hrs by MTT assay; format: functional, cell-based; conditions: MDA-MB-231, 48 h
MDA-MB-231 [4] = test: Cell cycle arrest in human MDA-MB-231 cells assessed as accumulation at G1 phase at 5.5 uM after 24 hrs by propidium iodide staining based flow cytometry; format: functional

SMILES	IC50 (A549) [µM]	IC50 (SMMC-7721) [µM]	IC50 (BGC-823) [µM]	HC50 at 1 h [1] [µM]	IC50 (MCF7) [µM]	IC50 (KB) [µM]	IC50 [2] [µM]	IC50 (MDA-MB-231 [3]) [µM]	Activity (MDA-MB-231 [4])
C[C@H]1O[C@@H](O[C@H]2[C@H](O[C@H]3CC[C@@]4(C)[C@@H](CC[C@]5(C)[C@@H]4CC(O)[C@]46OC(=O)[C@@]7(CCC(C)(C)C[C@H]74)CC[C@@]56C)[C@]3(C)CO)OC[C@H](O)[C@@H]2O)[C@H](O)[C@H](O)[C@H]1O (some centres undefined)	> 100	56.6	81.9	77.7	–	–	–	–	–
C[C@@H]1O[C@@H](O[C@H]2[C@H](O[C@H]3CC[C@@]4(C)[C@@H](CC[C@]5(C)[C@@H]4CC=C4[C@@H]6CC(C)(C)CC[C@]6(C(=O)O)CC[C@]45C)[C@]3(C)CO)OC[C@H](O)[C@@H]2O)[C@H](O)[C@@H](O)[C@H]1O	18.6 to 20.9	12.2	14.6	3.86	22.2	20.7	19.6	17.8	–
CC(=O)OC[C@@]1(C)[C@@H]2CC[C@]3(C)[C@H](CC=C4[C@@H]5CC(C)(C)CC[C@]5(C(=O)O)CC[C@]43C)[C@@]2(C)CC[C@@H]1O[C@@H]1OC[C@H](OC(C)=O)[C@H](OC(C)=O)[C@H]1O[C@@H]1O[C@H](C)[C@H](OC(C)=O)[C@@H](OC(C)=O)[C@H]1OC(C)=O	72.1	69.9	74	–	–	–	–	–	–
C[C@H]1O[C@@H](O[C@H]2[C@H](O[C@H]3CC[C@@]4(C)[C@@H](CC[C@]5(C)[C@@H]4CC(=O)[C@@H]4[C@@H]6CC(C)(C)CC[C@]6(C(=O)O)CC[C@]45C)[C@]3(C)CO)OC[C@H](O)[C@@H]2O)[C@H](O)[C@H](O)[C@H]1O	91	53.8	77.2	190	–	–	–	–	–
C[C@H]1O[C@@H](O[C@H]2[C@H](O[C@H]3CC[C@@]4(C)[C@@H](CC[C@]5(C)[C@@H]4CC(=O)[C@@H]4[C@@H]6CC(C)(C)CC[C@]6(C(=O)NCC(=O)O)CC[C@]45C)[C@]3(C)CO)OC[C@H](O)[C@@H]2O)[C@H](O)[C@H](O)[C@H]1O	95.8	44	86.1	339	–	–	–	–	–
C[C@H]1O[C@@H](O[C@H]2[C@H](O[C@H]3CC[C@@]4(C)[C@@H](CC[C@]5(C)[C@@H]4C(=O)C=C4[C@@H]6CC(C)(C)CC[C@]6(C(=O)NCC(=O)O)CC[C@]45C)[C@]3(C)CO)OC[C@H](O)[C@@H]2O)[C@H](O)[C@H](O)[C@H]1O	> 100	46.7	93.7	461	–	–	–	–	–
C[C@H]1O[C@@H](O[C@H]2[C@H](O[C@H]3CC[C@@]4(C)[C@@H](CC[C@]5(C)[C@@H]4CC=C4[C@@H]6CC(C)(C)CC[C@]6(C(=O)NCCCCCC(=O)O)CC[C@]45C)[C@]3(C)CO)OC[C@H](O)[C@@H]2O)[C@H](O)[C@H](O)[C@H]1O	> 100	27.4	65.5	393	–	–	–	–	–
C[C@H]1O[C@@H](O[C@H]2[C@H](O[C@H]3CC[C@@]4(C)[C@@H](CC[C@]5(C)[C@@H]4CC(=O)[C@]46OC(=O)[C@@]7(CCC(C)(C)C[C@H]74)CC[C@@]56C)[C@]3(C)CO)OC[C@H](O)[C@@H]2O)[C@H](O)[C@H](O)[C@H]1O	> 100	70.6	80.3	> 500	–	–	–	–	–
C[C@H]1O[C@@H](O[C@H]2[C@H](O[C@H]3CC[C@@]4(C)[C@@H](CC[C@]5(C)[C@@H]4CC=C4[C@@H]6CC(C)(C)CC[C@]6(C(=O)NCCCCC(=O)O)CC[C@]45C)[C@]3(C)CO)OC[C@H](O)[C@@H]2O)[C@H](O)[C@H](O)[C@H]1O	> 100	26.8	67.8	228	–	–	–	–	–
C[C@H]1O[C@@H](O[C@H]2[C@H](O[C@H]3CC[C@@]4(C)[C@@H](CC[C@]5(C)[C@@H]4CC=C4[C@@H]6CC(C)(C)CC[C@]6(C(=O)NCC(=O)NCC(=O)O)CC[C@]45C)[C@]3(C)CO)OC[C@H](O)[C@@H]2O)[C@H](O)[C@H](O)[C@H]1O	> 100	57.8	76.3	> 500	–	–	–	–	–
CC(=O)OC[C@@]1(C)[C@@H]2CC[C@]3(C)[C@H](CC(O)[C@]45OC(=O)[C@@]6(CCC(C)(C)C[C@H]64)CC[C@@]35C)[C@@]2(C)CC[C@@H]1O[C@@H]1OC[C@H](OC(C)=O)[C@H](OC(C)=O)[C@H]1O[C@@H]1O[C@H](C)[C@H](OC(C)=O)[C@@H](OC(C)=O)[C@H]1OC(C)=O (some centres undefined)	> 100	90.2	> 100	–	–	–	–	–	–
C[C@H]1O[C@@H](O[C@H]2[C@H](O[C@H]3CC[C@@]4(C)[C@@H](CC[C@]5(C)[C@@H]4CC=C4[C@@H]6CC(C)(C)CC[C@]6(C(=O)OCCCCO[N+](=O)[O-])CC[C@]45C)[C@]3(C)CO)OC[C@H](O)[C@@H]2O)[C@H](O)[C@H](O)[C@H]1O	84.5	22.1	66.5	14.9	–	–	–	–	–
CC1(C)CC[C@]2(C(=O)N3CCN(CCC(=O)O)CC3)CC[C@]3(C)C(=CC[C@@H]4[C@@]5(C)CC[C@H](O)[C@@](C)(CO)[C@@H]5CC[C@]43C)[C@@H]2C1	31.5	–	–	> 500	> 40	15	> 40	32.9	–
C[C@H]1O[C@@H](O[C@H]2[C@H](O[C@H]3CC[C@@]4(C)[C@@H](CC[C@]5(C)[C@@H]4C/C(=N/O)[C@@H]4[C@@H]6CC(C)(C)CC[C@]6(C(=O)O)CC[C@]45C)[C@]3(C)CO)OC[C@H](O)[C@@H]2O)[C@H](O)[C@H](O)[C@H]1O	> 100	69.4	95.6	> 500	–	–	–	–	–
COC(=O)CCN1CCN(C(=O)[C@]23CCC(C)(C)C[C@H]2C2=CC[C@@H]4[C@@]5(C)CC[C@H](OC(C)=O)[C@@](C)(COC(C)=O)[C@@H]5CC[C@@]4(C)[C@]2(C)CC3)CC1	4.69	–	–	> 500	10.7	5.08	5.25	5.54	Active
C[C@H]1O[C@@H](O[C@H]2[C@H](O[C@H]3CC[C@@]4(C)[C@@H](CC[C@]5(C)[C@@H]4CC=C4[C@@H]6CC(C)(C)CC[C@]6(C(=O)OCCCCCCO[N+](=O)[O-])CC[C@]45C)[C@]3(C)CO)OC[C@H](O)[C@@H]2O)[C@H](O)[C@H](O)[C@H]1O	65.2	15.4	33.1	3.79	–	–	–	–	–
C[C@H]1O[C@@H](O[C@H]2[C@H](O[C@H]3CC[C@@]4(C)[C@@H](CC[C@]5(C)[C@@H]4C(=O)C=C4[C@@H]6CC(C)(C)CC[C@]6(C(=O)O)CC[C@]45C)[C@]3(C)CO)OC[C@H](O)[C@@H]2O)[C@H](O)[C@H](O)[C@H]1O	> 100	58.8	82.6	> 500	–	–	–	–	–
C[C@H]1O[C@@H](O[C@H]2[C@H](O[C@H]3CC[C@@]4(C)[C@@H](CC[C@]5(C)[C@@H]4CC=C4[C@@H]6CC(C)(C)CC[C@]6(C(=O)NCCCC(=O)O)CC[C@]45C)[C@]3(C)CO)OC[C@H](O)[C@@H]2O)[C@H](O)[C@H](O)[C@H]1O	98.7	27.3	70.2	313	–	–	–	–	–
CC1(C)CC[C@]2(C(=O)O)CC[C@]3(C)C(=CC[C@@H]4[C@@]5(C)CC[C@H](O)[C@@](C)(CO)[C@@H]5CC[C@]43C)[C@@H]2C1 [HEDERAGENIN]	10.2	–	–	> 200	39.4	14.6	27.9	36.6	–
C[C@H]1O[C@@H](O[C@H]2[C@H](O[C@H]3CC[C@@]4(C)[C@@H](CC[C@]5(C)[C@@H]4CC=C4[C@@H]6CC(C)(C)CC[C@]6(C(=O)OCCO[N+](=O)[O-])CC[C@]45C)[C@]3(C)CO)OC[C@H](O)[C@@H]2O)[C@H](O)[C@H](O)[C@H]1O	80.2	17.8	33.1	16.2	–	–	–	–	–
